The results in this text go back to patent US20250361230A1, “LATS Inhibitors and Uses Thereof” (The USA, as Represented by the Secretary, Dept. of Heath …, priority 2022, published 2025).

For orientation: IC50 means the concentration that inhibits the measured activity by half.

One experiment has as its target T1, LATS1 (Homo sapiens, UniProt O95835).
T1 sequence (O95835 1-1130): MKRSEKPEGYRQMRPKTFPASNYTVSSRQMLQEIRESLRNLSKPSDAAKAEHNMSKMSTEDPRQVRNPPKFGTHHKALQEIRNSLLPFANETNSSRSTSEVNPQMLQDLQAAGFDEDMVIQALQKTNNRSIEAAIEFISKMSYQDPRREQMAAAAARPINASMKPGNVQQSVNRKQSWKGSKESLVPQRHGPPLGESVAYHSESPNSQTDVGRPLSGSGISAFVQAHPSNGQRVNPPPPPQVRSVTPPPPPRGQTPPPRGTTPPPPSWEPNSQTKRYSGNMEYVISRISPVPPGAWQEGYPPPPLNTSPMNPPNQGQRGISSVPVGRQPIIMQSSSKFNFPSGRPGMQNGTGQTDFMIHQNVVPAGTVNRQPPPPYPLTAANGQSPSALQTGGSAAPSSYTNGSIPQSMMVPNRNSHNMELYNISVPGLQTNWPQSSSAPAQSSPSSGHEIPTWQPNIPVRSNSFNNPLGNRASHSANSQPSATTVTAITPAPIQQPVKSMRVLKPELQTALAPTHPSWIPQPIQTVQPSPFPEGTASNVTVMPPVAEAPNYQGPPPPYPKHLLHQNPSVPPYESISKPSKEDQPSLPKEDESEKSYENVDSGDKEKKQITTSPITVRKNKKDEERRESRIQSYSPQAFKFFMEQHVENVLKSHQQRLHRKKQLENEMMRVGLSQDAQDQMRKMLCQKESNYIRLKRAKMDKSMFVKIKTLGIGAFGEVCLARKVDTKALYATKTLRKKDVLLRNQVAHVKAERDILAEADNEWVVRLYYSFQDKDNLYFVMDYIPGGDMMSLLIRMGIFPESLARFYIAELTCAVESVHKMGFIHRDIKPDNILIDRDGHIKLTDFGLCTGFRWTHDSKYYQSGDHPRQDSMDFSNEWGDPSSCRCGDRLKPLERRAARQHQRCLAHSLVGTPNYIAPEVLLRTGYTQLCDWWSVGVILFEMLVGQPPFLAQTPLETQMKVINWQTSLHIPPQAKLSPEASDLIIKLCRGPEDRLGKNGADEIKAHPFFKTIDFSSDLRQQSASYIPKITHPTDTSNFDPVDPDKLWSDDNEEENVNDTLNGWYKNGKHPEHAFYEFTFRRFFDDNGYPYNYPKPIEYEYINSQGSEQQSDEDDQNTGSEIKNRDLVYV
As to the kind of experiment: RBC HotSpot kinase assay (33P-ATP, P81 filter-binding), LATS1. The experiment is classed as biochemical. As to conditions: Table 28, biochemical kinase assay; read-out: LATS1 IC50. The gist of the method:
(§1)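 Radiometric 33P-ATP kinase reaction in 20 mM Hepes pH 7.5, 10 mM MgCl2, 1 mM EGTA, 0.01% Brij35, 0.02 mg/ml BSA, 0.1 mM Na3VO4, 2 mM DTT, 1% DMSO. Compound preincubated with kinase and substrate 20 min, then 2 h at room temperature; P81 filter-binding read-out. IC50 (nM) from 10-point singlet curves.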

In a further experiment the target is AKT (Homo sapiens, UniProt P31749). The experiment is described as follows: RBC HotSpot kinase assay (33P-ATP, P81 filter-binding), AKT. The experiment is classed as biochemical. As to conditions: Table 28, biochemical kinase assay; read-out: AKT IC50. The method, boiled down: as §1
Sequence of AKT (P31749 whole entry): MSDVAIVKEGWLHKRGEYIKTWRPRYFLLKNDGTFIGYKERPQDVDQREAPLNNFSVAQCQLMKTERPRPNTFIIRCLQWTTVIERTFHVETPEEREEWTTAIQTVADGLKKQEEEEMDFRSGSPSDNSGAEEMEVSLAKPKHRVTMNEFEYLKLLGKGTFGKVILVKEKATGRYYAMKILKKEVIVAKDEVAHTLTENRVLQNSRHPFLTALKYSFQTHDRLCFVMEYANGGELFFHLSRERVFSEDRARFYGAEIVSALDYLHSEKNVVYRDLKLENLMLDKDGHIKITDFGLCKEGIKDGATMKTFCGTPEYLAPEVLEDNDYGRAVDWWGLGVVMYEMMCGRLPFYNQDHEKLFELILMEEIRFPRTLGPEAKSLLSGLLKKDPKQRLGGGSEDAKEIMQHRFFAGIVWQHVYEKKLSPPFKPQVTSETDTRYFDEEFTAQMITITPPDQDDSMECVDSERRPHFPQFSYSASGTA

On to `Clc1c[nH]c2nccc(-c3ccc(C4CCNCC4)cc3)c12` [Compound 173, 3-chloro-4-(4-(piperidin-4-yl)phenyl)-1H-pyrrolo[2,3-b]pyridine], for which the IC50 on LATS1 is 7.2 nM; on AKT it was 330 nM.
The like results for `Cc1cc(-c2ccnc3[nH]ccc23)ccc1C1CCNCC1` [Compound 177, 4-(3-methyl-4-(piperidin-4-yl)phenyl)-1H-pyrrolo[2,3-b]pyridine] were, in that order, 11 nM and 684 nM.
The like results for `c1cc(-c2ccc(C3CC4CCC(C3)N4)cc2)c2cc[nH]c2n1` (centres unmarked) [Compound 184, 4-(4-(8-azabicyclo[3.2.1]octan-3-yl)phenyl)-1H-pyrrolo[2,3-b]pyridine] were, in that order, 25 nM and 940 nM.
The like results for `CC1CC(c2ccc(-c3ccnc4[nH]ccc34)cc2)CC(C)N1` (centres unmarked) [Compound 187, 4-(4-(2,6-dimethylpiperidin-4-yl)phenyl)-1H-pyrrolo[2,3-b]pyridine] were, in that order, 66.1 nM and 1440 nM.
`CC1(c2ccc(-c3ccnc4[nH]ccc34)cc2)CCNCC1` [Compound 201, 4-(4-(4-methylpiperidin-4-yl)phenyl)-1H-pyrrolo[2,3-b]pyridine]: the concentration for half-maximal inhibition (IC50) at LATS1 was 59 nM; at AKT, 200 nM.
Taken in the same sequence, the figures for `Cc1cc(-c2ccnc3[nH]cc(F)c23)ccc1CN` [Compound 211, (4-(3-fluoro-1H-pyrrolo[2,3-b]pyridin-4-yl)-2-methylphenyl) methanamine] were 3.7 nM and 312 nM.
Taken in the same sequence, the figures for `NCc1ccc(-c2ccnc3[nH]cc(-c4ccccc4)c23)cc1-c1ccccc1` [Compound 219, (5-(3-phenyl-1H-pyrrolo[2,3-b]pyridin-4-yl)-[1,1′-biphenyl]-2-yl)methanamine] were 39 nM and 394 nM.
Taken in the same sequence, the figures for `COC(=O)c1c[nH]c2nccc(-c3ccc(CN)cc3)c12` [Compound 223, methyl 4-(4-(aminomethyl)phenyl)-1H-pyrrolo[2,3-b]pyridine-3-carboxylate] were 27.4 nM and 13 nM.
Turning to `Cc1cccc(-c2c[nH]c3nccc(-c4ccc(CN)cc4)c23)c1` [Compound 230, (4-(3-(m-tolyl)-1H-pyrrolo[2,3-b]pyridin-4-yl)phenyl) methanamine], the results for the half-inhibitory concentration (IC50) on LATS1 and at AKT were 17 nM and 1200 nM, respectively.
Turning to `CC(C)(N)c1ccc(-c2ccnc3[nH]cc(F)c23)cc1` [Compound 238, 2-(4-(3-fluoro-1H-pyrrolo[2,3-b]pyridin-4-yl)phenyl)propan-2-amine], the results for the concentration for half-maximal inhibition (IC50) at LATS1 and on AKT were 1.1 nM and 229 nM, respectively.
Turning to `NCc1ccc(-c2ccnc3[nH]cc(-c4cccnc4)c23)cc1` [Compound 245, (4-(3-(pyridin-3-yl)-1H-pyrrolo[2,3-b]pyridin-4-yl)phenyl) methanamine], the IC50 at LATS1 was found to be 12 nM; on AKT, 751 nM.
The like results for `NCc1ccc(-c2ccnc3[nH]cc(-c4ccccc4)c23)cc1` [Compound 253, (4-(3-phenyl-1H-pyrrolo[2,3-b]pyridin-4-yl)phenyl) methanamine] were, in that order, 13 nM and 983 nM.
Taken in the same sequence, the figures for `Cc1cc(-c2ccnc3[nH]cc(Cl)c23)ccc1CN` [Compound 254, (4-(3-chloro-1H-pyrrolo[2,3-b]pyridin-4-yl)-2-methylphenyl) methanamine] were 3.4 nM and 116 nM.
Consider `Cc1cc(-c2ccnc3[nH]ccc23)ccc1CN` [Compound 266, (2-methyl-4-(1H-pyrrolo[2,3-b]pyridin-4-yl)phenyl) methanamine], for which the IC50 worked out at 6 nM on LATS1 and 249 nM on AKT.
Taken in the same sequence, the figures for `c1cc(-c2ccc3c(c2)CCNC3)c2cc[nH]c2n1` [Compound 267, 6-(1H-pyrrolo[2,3-b]pyridin-4-yl)-1,2,3,4-tetrahydroiso-quinoline] were 11 nM and 308 nM.
As for `c1cc(-c2ccc(C3CCCCN3)cc2)c2cc[nH]c2n1` (centres unmarked) [Compound 271, 4-(4-(piperidin-2-yl)phenyl)-1H-pyrrolo[2,3-b]pyridine], the IC50 at LATS1 was 20 nM; on AKT, 428 nM.
The like results for `NCc1ccc(-c2ccnc3[nH]cc(F)c23)cc1` [Compound 275, (4-(3-fluoro-1H-pyrrolo[2,3-b]pyridin-4-yl)phenyl) methanamine] were, in that order, 13 nM and 266 nM.
Consider `NCc1ccc(-c2ccnc3[nH]cc(Cl)c23)cc1` [Compound 276, (4-(3-chloro-1H-pyrrolo[2,3-b]pyridin-4-yl)phenyl) methanamine], for which the figures for the IC50 on LATS1 and on AKT were 12 nM and 167 nM, respectively.
The like results for `NCc1ccc(-c2ccnc3[nH]ccc23)cc1C(F)(F)F` [Compound 284, (4-(1H-pyrrolo[2,3-b]pyridin-4-yl)-2-(trifluoromethyl)phenyl) methanamine] were, in that order, 10 nM and 1150 nM.
For the compound `NCc1ccc(-c2ccnc3[nH]ccc23)cc1` [Compound 287, (4-(1H-pyrrolo[2,3-b]pyridin-4-yl)phenyl) methanamine], the IC50 came to 23 nM at LATS1 and 1030 nM on AKT.
For the compound `Cc1cc(-c2ccnc3[nH]cc(F)c23)cc(F)c1[C@@]1(O)[C@H](C)CN(C)C[C@@H]1C` [Compound 304, (3S,4s,5R)-4-(2-fluoro-4-(3-fluoro-1H-pyrrolo[2,3-b]pyridin-4-yl)-6-methylphenyl)-1,3,5-trimethylpiperidin-4-ol], the concentration for half-maximal inhibition (IC50) at LATS1 was found to be 5.1 nM; at AKT, 271 nM.
Taken in the same sequence, the figures for `Cc1cc(-c2ccnc3[nH]cc(F)c23)cc(F)c1[C@@]1(O)[C@H](C)CN(C(C)C)C[C@@H]1C` [Compound 305, (3S,4s,5R)-4-(2-fluoro-4-(3-fluoro-1H-pyrrolo[2,3-b]pyridin-4-yl)-6-methylphenyl)-1-isopropyl-3,5-dimethylpiperidin-4-ol] were 4.1 nM and 758 nM.
The like results for `COC(=O)c1c[nH]c2nccc(-c3cc(C)c([C@@]4(O)[C@H](C)CN(C5CCS(=O)(=O)CC5)C[C@@H]4C)c(F)c3)c12` [Compound 309, methyl 4-(4-((3S,4s,5R)-1-(1,1-dioxidotetrahydro-2H-thiopyran-4-yl)-4-hydroxy-3,5-dimethylpiperidin-4-yl)-3-fluoro-5-methylphenyl)-1H-pyrrolo[2,3-b]pyridine-3-carboxylate] were, in that order, 3.1 nM and 2270 nM.
Taken in the same sequence, the figures for `COC(=O)c1c[nH]c2nccc(-c3cc(C)c([C@@]4(O)[C@H](C)CN(C(=O)CN)C[C@@H]4C)c(F)c3)c12` [Compound 310, methyl 4-(3-fluoro-4-((3S,4s,5R)-1-glycyl-4-hydroxy-3,5-dimethylpiperidin-4-yl)-5-methylphenyl)-1H-pyrrolo[2,3-b]pyridine-3-carboxylate] were 5.1 nM and 4420 nM.
As for `Cc1cc(-c2ccnc3[nH]cc(F)c23)cc(F)c1[C@@]1(O)[C@H](C)CN(C(=O)[C@H](N)CO)C[C@@H]1C` [Compound 312, (R)-2-amino-1-((3S,4R,5R)-4-(2-fluoro-4-(3-fluoro-1H-pyrrolo[2,3-b]pyridin-4-yl)-6-methylphenyl)-4-hydroxy-3,5-dimethylpiperidin-1-yl)-3-hydroxypropan-1-one], the results for the 50% inhibitory concentration (IC50) on LATS1 and on AKT were 8.1 nM and 153 nM, respectively.
